Measured values reported in patent US12605407B2, “Methods to induce terminal differentiation in stem cells by interfering with DNA replication, methods of inducing pancreatic differentiation, and differentiated cells obtained thereof” (priority 2018, dated 2026).

Tests used:
pancreatic progenitors = experiment: Beta cell differentiation from human pluripotent stem cells, flow cytometry of C-peptide and NKX6.1 positive cells; format: cell-based
Experimental: (§1) Beta cells differentiated from human pluripotent stem cell lines as described in Example 2 (Sui et al., 2018b). Indicated compounds that function as cell cycle inhibitors were added individually from day 15 to day 27 with concentration listed below:
The DNA replication inhibitors used in this study: 0.1 μM, 0.5 μM and 1 μM Aphidicolin (A0781, Sigma-Aldrich); 2.5 μM Cisplatin (232120, EMD Millipore); 100 μM Ciprofloxacin (S2027, Selleck Chemicals); 10 μM Pyridostatin (S7444, Selleck Chemicals); 10 μM E2F Inhibitor (324461, EMD Millipore); 0.05 μM A485 (6387, Tocris); 2 μM RL5a (SML2187, Sigma-Aldrich); and 2 μM Etoposide (E55500, Research Products International). Indicated compounds were added individually from day 15 to day 27 with indicated concentration.
The beta cell clusters were dissociated using TrypLE™ Express into single cells. Cells were fixed with 4% PFA for 10 min and followed by permeabilization at −20° C. with cold methanol for 10 min. Primary antibodies were added at a dilution of 1:100 in autoMACs Rinsing Solution (Cat. No. 130-091-222, Miltenyi Biotec) containing 0.5% BSA at 4° C. for 1 hour. Secondary antibodies were added at a dilution of 1:500 at room temperature for 1 hour. The cells were filtered with BD Falcon 12×75 mm tube with cell strainer cap (Cat. No. 352235, BD) and subsequently analyzed by flow cytometer. Data were analyzed using Flowjo software. Negative controls were performed by only adding secondary antibodies.
Aphidicolin (APH), a DNA polymerase inhibitor, was used to inhibit DNA replication (Koundrioukoff et al., 2013). […] The insulin expressing cells were evenly distributed in the islet-like clusters with high percentage indicated by the expression of GFP, whereas some parts of the clusters in control remained GFP negative (FIG. 1D).

[1] = system: iPSC lines 1018E and 1023A; experiment: Beta cell differentiation in iPSC lines with different differentiation potentials, C-peptide positive cells; format: cell-based, human
Experimental: Human pluripotent stem cells were cultured and maintained in feeder-free plates with stemflex medium as described. Three cell lines were involved in this study as shown in Table 2: MEL1 is human embryonic stem cell line; 1023A is a human induced pluripotent stem cell line reprogrammed from a skin fibroblast biopsied of a healthy control; and 1018E is a human induced pluripotent stem cell line reprogrammed from a skin fibroblast biopsied from a type 1 diabetes patient. All human subjects research was reviewed and approved by the Columbia University Institutional Review Board, and the Columbia University Embryonic Stem Cell Committee.
as §1
The beta cell clusters were dissociated using TrypLE™ Express into single cells. Cells were fixed with 4% PFA for 10 min and followed by permeabilization at −20° C. with cold methanol for 10 min. […] The cells were filtered with BD Falcon 12×75 mm tube with cell strainer cap (Cat. No. 352235, BD) and subsequently analyzed by flow cytometer. Data were analyzed using Flowjo software. […]

[2] = system: stem cell derived beta cells; experiment: Western blotting of sorted GFP positive cells; format: cell-based, human; details: Western Blot
Experimental: The sorted GFP positive and negative cells with and without cell cycle inhibitor (e.g., APH) treatment were lysed with RIPA buffer. Protein was quantified with Pierce BCA protein assay kit. 20 ug of protein was loaded on 4-20% Mini-PROTEAN TGS Precast Protein Gels (Cat. No. 4561094, Bio-Rad) from each condition and ran at 100 V for 1 hour followed by transferring protein on PVDF membrane. The membrane was blocked with 3% BSA in TBST for 1 hour at RT, incubate with primary antibodies diluted in TBST with 3% BSA overnight on a shaker. After washing with TBST, the membrane was incubated with secondary antibodies diluted in TBST with 3% non-fat dry milk powder for 1 hour at room temperature. The image was taken using ChemiDoc Imaging Systems (Bio-Rad).
Insulin positive cells were isolated based on GFP expression and the expressions of genes related to the maturation of beta cells including PDX1, NKX6.1, MAFA and insulin were evaluated (FIG. 6A). […] In addition, the C-peptide secretion was increased 2-6-fold, with an average of 3-fold, in response to high levels of glucose (FIG. 6D).

NSG mice = experiment: Transplantation of treated islet-like clusters, human C-peptide in mouse serum; format: in vivo
Experimental: 8-10 weeks old male immuno-compromised mice (NOD.Cg-Prkdcscid Il2rgtm1Wj1/SzJ (NSG) from Jackson laboratories, Cat. No. 005557) were used for transplantation. For intra leg muscle transplantation, 1-2 million cells were collected and settled in tube with 50 μl Matrigel. All animal protocols were approved by the Institutional Animal Care and Use Committee in Columbia University.
The human C-peptide levels in mouse serum were measured every two weeks in the fed state. Intraperitoneal glucose tolerance test was performed by fasting overnight and injecting 2 g/kg D-glucose solution at 2 weeks after mouse beta cells were ablated with one high dose (150 mg/kg) Streptozocin (Cat. No. S0130-1G, Sigma-Aldrich). Blood was collected in heparin-coated tube at fed state, fasting and 30 min after glucose injection. Plasma were collected by centrifuging tubes at 2000 g for 15 minutes at 4° C. The supernatants were collected for C-peptide and insulin detection with Mercodia M-Plex™ ARRAY Chemiluminescent Mercodia Beta Kit. Blood glucose levels was measured at fed state, fasting and every 30 minutes after glucose injection for 2 hours.
To test the ability of aphidicolin treated islet-like clusters to regulate blood glucose levels, treated and untreated cells were grafted into NSG mice on day 27 of differentiation. After transplantation in the immunodeficient mice, the mice transplanted with APH treated cells developed higher human C-peptide starting from 2 weeks after engraftment compared to that of control mice (FIG. 7A). The increase became significant from 6 weeks after transplantation (FIG. 7B).

[3] = APH added d15-d20, d20-d27 or d15-d27, read at day 27, versus control

## C[C@@]1(CO)[C@H](O)CC[C@@]2(C)[C@H]1CC[C@H]1C[C@@H]3C[C@@]12CC[C@]3(O)CO [APH, Aphidicolin]
Pancreatic progenitors
  variability of beta cell differentiation: reduced
Pancreatic progenitors; 1 μM, d15-d27, compared with 0.1 μM and 0.5 μM
  percentage of c-peptide and NKX6.1 positive cells, comparison of concentrations: highest percentage
Pancreatic progenitors; [3]
  proportion of C-peptide and NKX6.1 dual positive cells: increased
  proportion of C-peptide positive cells: increased
Pancreatic progenitors; APH added from day 15 to day 27
  differentiation toward C-peptide and NKX6.1 positive cells, comparison of treatment windows: most effective
Pancreatic progenitors; all n=12 independent differentiation experiments
  C-peptide positive cells in cultures: more than 50%
Pancreatic progenitors; day 27
  effectiveness to induce differentiation of pancreatic progenitors to C-peptide positive cells, comparison within panel: most effective
[1]; both cell lines 1018E and 1023A, after APH treatment versus control
  percentage of C-peptide positive cells: significantly upregulated
[1]; cell line 1018E (differentiates poorly), after APH treatment
  average percentage of C-peptide positive cells: 38%
[2]
  expression of MAFA at the translational level: increased expression
  expression of NKX6.1 at the translational level: increased expression
  expression of PDX1 at the translational level: increased expression
  expression of insulin at the translational level: increased expression
NSG mice; after glucose injection
  secretion of human C-peptide in mice: increased
NSG mice; from 6 weeks after transplantation
  increase of human C-peptide versus control mice, significance: significant
NSG mice; mice transplanted with APH treated cells, starting from 2 weeks after engraftment
  human C-peptide compared to control mice: higher
NSG mice; when mice were fasted
  secretion of human C-peptide in mice: downregulated
